Laboratory results taken from ChEMBL document CHEMBL1201862, “PubChem BioAssay data set” (2004).
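Protocol summary: plate cells (96-well), add compound at 5 concentrations, incubate 48 h, interpolate endpoints linearly. Here, GI50 denotes the concentration required for 50% inhibition of growth.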 Calls of active or inactive are those of the source. Rule as the data show it: active = GI50 up to about 1.1 µM and inactive = higher.

What was measured:
Test in all cases: inhibition of tumour cell growth, NCI panel, 48 h
786-0 = tested on: 786-0
BT-549 = tested on: BT-549
CCRF-CEM = tested on: CCRF-CEM
EKVX = tested on: EKVX
HCC 2998 = tested on: HCC 2998
HCT-15 = tested on: HCT-15
HOP-62 = tested on: HOP-62
LOX IMVI = tested on: LOX IMVI
MDA-MB-435 = tested on: MDA-MB-435
NCI-H226 = tested on: NCI-H226
NCI-H522 = tested on: NCI-H522
NCI/ADR-RES = tested on: NCI/ADR-RES
OVCAR-5 = tested on: OVCAR-5
RPMI-8226 = tested on: RPMI-8226
SF-268 = tested on: SF-268
SK-MEL-2 = tested on: SK-MEL-2
OVCAR-3 = tested on: OVCAR-3
T47D = tested on: T47D
UACC-62 = tested on: UACC-62
SK-OV-3 = tested on: SK-OV-3

Compound	GI50 (786-0)	GI50 (BT-549)	GI50 (CCRF-CEM)	GI50 (EKVX)	GI50 (HCC 2998)	GI50 (HCT-15) [µM]	GI50 (HOP-62)	GI50 (LOX IMVI)	GI50 (MDA-MB-435)	GI50 (NCI-H226)	GI50 (NCI-H522)	GI50 (NCI/ADR-RES)	GI50 (OVCAR-5)	GI50 (RPMI-8226)	GI50 (SF-268)	GI50 (SK-MEL-2)	GI50 (OVCAR-3)	GI50 (T47D)	GI50 (UACC-62)	GI50 (SK-OV-3)
BrCC(Br)(c1ccccc1)c1ccccc1-c1cc(-c2ccccc2)cc(-c2ccccc2)n1 (stereo not drawn)	3.64 µM (inactive)	2.51 µM (inactive)	3.66 µM (inactive)	3.85 µM (inactive)	2.05 µM (inactive)	15.2	3.55 µM (inactive)	2.29 µM (inactive)	1.84 µM (inactive)	3.72 µM (inactive)	2.33 µM (inactive)	33.9 µM (inactive)	3.67 µM (inactive)	0.908 µM (active)	2.36 µM (inactive)	1.89 µM (inactive)	–	–	–	–
CCCCCN1CCN(c2ncccn2)CC1	> 100 µM (inactive)	–	> 100 µM (inactive)	> 100 µM (inactive)	> 100 µM (inactive)	> 100	> 100 µM (inactive)	> 100 µM (inactive)	> 100 µM (inactive)	–	> 100 µM (inactive)	> 100 µM (inactive)	> 100 µM (inactive)	> 100 µM (inactive)	> 100 µM (inactive)	> 100 µM (inactive)	> 100 µM (inactive)	> 100 µM (inactive)	> 100 µM (inactive)	–
CN1CCc2c(sc3ncn(Nc4ccc(Cl)cc4)c(=N)c23)C1	> 100 µM (inactive)	> 100 µM (inactive)	> 100 µM (inactive)	> 100 µM (inactive)	–	> 100	> 100 µM (inactive)	> 100 µM (inactive)	> 100 µM (inactive)	> 100 µM (inactive)	> 100 µM (inactive)	> 100 µM (inactive)	> 100 µM (inactive)	> 100 µM (inactive)	> 100 µM (inactive)	> 100 µM (inactive)	> 100 µM (inactive)	> 100 µM (inactive)	> 100 µM (inactive)	> 100 µM (inactive)
COc1cc(S(=O)(=O)Nc2nc(-c3ccc(N4C(=O)/C(=C/C=C/c5ccccc5)N=C4c4ccccc4)cc3)cs2)ccc1Cl	> 100 µM (inactive)	45 µM (inactive)	58.7 µM (inactive)	–	–	> 100	> 100 µM (inactive)	53.5 µM (inactive)	> 100 µM (inactive)	> 100 µM (inactive)	48.2 µM (inactive)	> 100 µM (inactive)	> 100 µM (inactive)	–	28.9 µM (inactive)	78.3 µM (inactive)	> 100 µM (inactive)	48.1 µM (inactive)	35 µM (inactive)	> 100 µM (inactive)
O=C1CCC[C@@H]2NC[C@@H](c3ccc4c(c3)OCO4)[C@H]12	> 25 µM (inactive)	–	> 25 µM (inactive)	> 25 µM (inactive)	> 25 µM (inactive)	> 25	> 25 µM (inactive)	> 25 µM (inactive)	> 25 µM (inactive)	> 25 µM (inactive)	> 25 µM (inactive)	> 25 µM (inactive)	> 25 µM (inactive)	> 25 µM (inactive)	> 25 µM (inactive)	> 25 µM (inactive)	–	> 25 µM (inactive)	> 25 µM (inactive)	> 25 µM (inactive)
O=C1Nc2c(Cl)cc(Cl)cc2C1=O	17.3 µM (inactive)	18 µM (inactive)	21.3 µM (inactive)	14.6 µM (inactive)	34.7 µM (inactive)	20.6	18.5 µM (inactive)	14.4 µM (inactive)	4.27 µM (inactive)	18.5 µM (inactive)	–	19.7 µM (inactive)	20.7 µM (inactive)	–	–	13.9 µM (inactive)	20.3 µM (inactive)	–	15.8 µM (inactive)	77.4 µM (inactive)
N=C(N)SCc1ccc2c(c1)S(=O)(=O)c1ccccc1O2	33.6 µM (inactive)	–	10.5 µM (inactive)	17 µM (inactive)	22.1 µM (inactive)	25.8	19 µM (inactive)	19.4 µM (inactive)	15.5 µM (inactive)	16.7 µM (inactive)	–	39.8 µM (inactive)	22 µM (inactive)	37.7 µM (inactive)	33.7 µM (inactive)	16.4 µM (inactive)	17 µM (inactive)	22.5 µM (inactive)	15.8 µM (inactive)	20.8 µM (inactive)
Cc1ccc2nc(CN3CCCC(O)C3)cc(=O)n2c1 (stereo not drawn)	> 100 µM (inactive)	> 100 µM (inactive)	> 100 µM (inactive)	> 100 µM (inactive)	> 100 µM (inactive)	> 100	> 100 µM (inactive)	> 100 µM (inactive)	> 100 µM (inactive)	> 100 µM (inactive)	> 100 µM (inactive)	> 100 µM (inactive)	> 100 µM (inactive)	> 100 µM (inactive)	> 100 µM (inactive)	> 100 µM (inactive)	> 100 µM (inactive)	–	> 100 µM (inactive)	> 100 µM (inactive)
CCOC(=O)c1c(C)nc2c(c1-c1cn(-c3ccccc3)nc1-c1ccccc1)C(=O)c1ccccc1-2	> 100 µM (inactive)	> 100 µM (inactive)	> 100 µM (inactive)	> 100 µM (inactive)	–	> 100	> 100 µM (inactive)	> 100 µM (inactive)	> 100 µM (inactive)	> 100 µM (inactive)	> 100 µM (inactive)	> 100 µM (inactive)	> 100 µM (inactive)	–	> 100 µM (inactive)	> 100 µM (inactive)	> 100 µM (inactive)	> 100 µM (inactive)	> 100 µM (inactive)	> 100 µM (inactive)
CC(=O)NS(=O)(=O)c1ccc(NC(=O)c2c3ccccc3nc3ccccc23)cc1	> 100 µM (inactive)	> 100 µM (inactive)	> 100 µM (inactive)	> 100 µM (inactive)	> 100 µM (inactive)	> 100	> 100 µM (inactive)	> 100 µM (inactive)	> 100 µM (inactive)	–	> 100 µM (inactive)	> 100 µM (inactive)	> 100 µM (inactive)	> 100 µM (inactive)	> 100 µM (inactive)	> 100 µM (inactive)	> 100 µM (inactive)	–	> 100 µM (inactive)	> 100 µM (inactive)
Oc1ccc2ccccc2c1/N=N/c1ccc(Br)cc1	> 100 µM (inactive)	> 100 µM (inactive)	> 100 µM (inactive)	36.2 µM (inactive)	–	> 100	21 µM (inactive)	> 100 µM (inactive)	> 100 µM (inactive)	66.7 µM (inactive)	> 100 µM (inactive)	> 100 µM (inactive)	63 µM (inactive)	> 100 µM (inactive)	23.6 µM (inactive)	> 100 µM (inactive)	86.9 µM (inactive)	> 100 µM (inactive)	> 100 µM (inactive)	17.4 µM (inactive)
CC1(C)OC(CCC#N)CN1C(=O)OCc1ccccc1 (stereo not drawn)	> 100 µM (inactive)	20.7 µM (inactive)	> 100 µM (inactive)	> 100 µM (inactive)	> 100 µM (inactive)	> 100	–	> 100 µM (inactive)	> 100 µM (inactive)	23.6 µM (inactive)	75.2 µM (inactive)	> 100 µM (inactive)	> 100 µM (inactive)	> 100 µM (inactive)	–	> 100 µM (inactive)	> 100 µM (inactive)	–	> 100 µM (inactive)	> 100 µM (inactive)
CS(=O)(=O)OCCN(CCOS(C)(=O)=O)c1ccc(/C=N/c2ccc(-c3csc(Cc4ccccc4)n3)cc2)c(Cl)c1	23 µM (inactive)	–	10.1 µM (inactive)	36.5 µM (inactive)	10.9 µM (inactive)	30.3	13 µM (inactive)	20.1 µM (inactive)	21 µM (inactive)	0.218 µM (active)	> 43.4 µM (inactive)	23.2 µM (inactive)	5.01 µM (inactive)	23.8 µM (inactive)	27.4 µM (inactive)	> 46 µM (inactive)	17.7 µM (inactive)	30.8 µM (inactive)	6.5 µM (inactive)	43.5 µM (inactive)
COC(=O)c1c(O)ccc2c1c1c(n2Cc2ccccc2)C(=O)c2ccccc2C1	39.2 µM (inactive)	58.6 µM (inactive)	21.1 µM (inactive)	–	–	35.1	> 100 µM (inactive)	26.2 µM (inactive)	33 µM (inactive)	46.3 µM (inactive)	–	25.8 µM (inactive)	0.0282 µM (active)	12.4 µM (inactive)	39 µM (inactive)	43.6 µM (inactive)	43 µM (inactive)	–	36.9 µM (inactive)	31.9 µM (inactive)
COc1cc2c(/C=C3/C(=O)Nc4cc(C)c(O)cc43)c(Cl)[nH]c2cc1C	2.59 µM (inactive)	6.75 µM (inactive)	0.552 µM (active)	–	–	3.33	2 µM (inactive)	5.61 µM (inactive)	0.368 µM (active)	5.69 µM (inactive)	2.98 µM (inactive)	2.88 µM (inactive)	4.33 µM (inactive)	1.75 µM (inactive)	6.12 µM (inactive)	4.98 µM (inactive)	1.06 µM (active)	3.16 µM (inactive)	1.96 µM (inactive)	2.1 µM (inactive)
OC[C@H]1O[C@@H]2O[C@@](COCc3ccccc3)([C@H](OCc3ccccc3)[C@H]2O)[C@@H]1OCc1ccccc1	17 µM (inactive)	22.2 µM (inactive)	13.4 µM (inactive)	14.1 µM (inactive)	–	18.8	18.1 µM (inactive)	16.7 µM (inactive)	17.3 µM (inactive)	–	17.3 µM (inactive)	17.2 µM (inactive)	17.1 µM (inactive)	13.7 µM (inactive)	18.1 µM (inactive)	16.3 µM (inactive)	14.6 µM (inactive)	14.8 µM (inactive)	14.4 µM (inactive)	14.8 µM (inactive)
